Among the data in US10246426B2, “Triazole compounds as T-type calcium channel blockers” (IDORSIA PHARMACEUTICALS LTD, priority 2014, dated 2019) are IC50 values, retold here.

Sequence of Cav3.2 (O95180 whole entry, looked up): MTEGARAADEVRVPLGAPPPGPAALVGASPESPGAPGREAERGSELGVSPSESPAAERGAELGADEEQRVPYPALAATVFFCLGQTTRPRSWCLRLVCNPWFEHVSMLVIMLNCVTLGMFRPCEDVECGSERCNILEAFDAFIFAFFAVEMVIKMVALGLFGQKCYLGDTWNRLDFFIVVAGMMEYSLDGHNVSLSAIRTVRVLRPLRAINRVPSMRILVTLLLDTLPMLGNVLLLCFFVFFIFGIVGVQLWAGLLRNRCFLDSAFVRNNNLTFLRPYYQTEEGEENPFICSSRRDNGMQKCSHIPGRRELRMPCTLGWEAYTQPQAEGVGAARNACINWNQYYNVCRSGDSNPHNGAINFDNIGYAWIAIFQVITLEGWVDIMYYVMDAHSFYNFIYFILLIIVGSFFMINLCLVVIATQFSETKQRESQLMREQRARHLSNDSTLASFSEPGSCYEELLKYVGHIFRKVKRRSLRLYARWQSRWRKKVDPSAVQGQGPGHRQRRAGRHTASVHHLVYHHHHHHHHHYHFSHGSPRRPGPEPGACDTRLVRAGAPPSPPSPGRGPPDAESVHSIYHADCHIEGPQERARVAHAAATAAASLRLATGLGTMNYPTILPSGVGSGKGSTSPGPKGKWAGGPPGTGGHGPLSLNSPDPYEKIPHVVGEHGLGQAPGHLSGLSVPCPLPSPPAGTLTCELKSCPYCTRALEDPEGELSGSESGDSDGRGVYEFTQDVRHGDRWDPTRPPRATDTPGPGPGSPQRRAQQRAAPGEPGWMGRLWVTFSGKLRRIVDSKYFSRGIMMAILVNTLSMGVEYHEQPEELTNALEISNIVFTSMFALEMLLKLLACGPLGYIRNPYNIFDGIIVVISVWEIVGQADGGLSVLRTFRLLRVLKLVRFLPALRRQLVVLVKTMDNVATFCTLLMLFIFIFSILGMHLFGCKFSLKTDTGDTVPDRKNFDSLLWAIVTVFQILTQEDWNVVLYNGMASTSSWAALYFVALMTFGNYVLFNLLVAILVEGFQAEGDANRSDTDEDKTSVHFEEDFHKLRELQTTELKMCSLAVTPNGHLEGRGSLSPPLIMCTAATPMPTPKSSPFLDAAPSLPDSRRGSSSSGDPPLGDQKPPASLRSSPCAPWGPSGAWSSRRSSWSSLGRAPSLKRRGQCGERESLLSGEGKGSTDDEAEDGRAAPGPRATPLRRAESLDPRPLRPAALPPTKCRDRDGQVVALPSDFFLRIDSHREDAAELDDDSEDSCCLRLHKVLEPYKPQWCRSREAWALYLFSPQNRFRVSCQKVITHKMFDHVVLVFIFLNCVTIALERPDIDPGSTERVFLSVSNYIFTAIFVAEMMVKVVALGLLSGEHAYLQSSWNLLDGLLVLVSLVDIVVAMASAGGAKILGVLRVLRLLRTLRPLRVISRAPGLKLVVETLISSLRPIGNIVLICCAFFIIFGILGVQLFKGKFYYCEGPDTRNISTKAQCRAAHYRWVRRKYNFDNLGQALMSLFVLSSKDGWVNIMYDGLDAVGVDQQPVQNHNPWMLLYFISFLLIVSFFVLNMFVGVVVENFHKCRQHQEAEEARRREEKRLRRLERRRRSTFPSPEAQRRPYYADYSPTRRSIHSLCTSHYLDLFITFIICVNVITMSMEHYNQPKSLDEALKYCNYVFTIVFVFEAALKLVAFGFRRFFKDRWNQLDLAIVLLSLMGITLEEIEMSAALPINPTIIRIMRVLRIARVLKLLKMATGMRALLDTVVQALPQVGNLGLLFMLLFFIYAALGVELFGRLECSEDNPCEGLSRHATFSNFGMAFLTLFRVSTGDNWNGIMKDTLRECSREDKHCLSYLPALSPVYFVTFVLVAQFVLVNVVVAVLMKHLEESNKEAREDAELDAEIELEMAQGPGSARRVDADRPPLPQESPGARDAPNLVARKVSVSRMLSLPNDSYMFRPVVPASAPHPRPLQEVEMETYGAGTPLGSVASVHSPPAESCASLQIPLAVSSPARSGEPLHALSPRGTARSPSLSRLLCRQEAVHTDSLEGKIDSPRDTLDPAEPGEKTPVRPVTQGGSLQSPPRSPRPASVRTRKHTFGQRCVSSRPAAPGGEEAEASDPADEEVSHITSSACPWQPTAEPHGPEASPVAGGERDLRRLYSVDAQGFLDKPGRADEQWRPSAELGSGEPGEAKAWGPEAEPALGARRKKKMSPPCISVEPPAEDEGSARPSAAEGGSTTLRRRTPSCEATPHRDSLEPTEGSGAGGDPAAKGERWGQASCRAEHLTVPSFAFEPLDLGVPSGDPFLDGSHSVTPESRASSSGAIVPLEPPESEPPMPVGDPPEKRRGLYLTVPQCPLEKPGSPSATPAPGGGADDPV

For the test, the target named is Cav3.2 (Homo sapiens, UniProt O95180). Kind of test: Calcium flux FLIPR assay, HEK293 cells recombinantly expressing Cav3.2. Conditions: Cav3.2-channel, Ca2+ entry stimulated by 10 mM CaCl2. Type of test: cell-based. On the procedure:
In Vitro Methods—Measurement of Calcium Channel Flux by Means of FLIPR Assays.
HEK293 cells recombinantly expressing either voltage-dependent T-type calcium channel subunit […] (Cav3.2) or voltage-dependent L-type calcium channel subunit alpha-1C (Cav1.2) are assayed for calcium flux using the calcium indicator dye Fluo-4-AM (Molecular Devices) and FLIPR technology (Fluorometric Imaging Plate Reader, Molecular Devices) (Xie X, Van Deusen A L, Vitko I, Babu D A, Davies L A, Huynh N, Cheng H, Yang N, Barrett P Q, Perez-Reyes E. Validation of high throughput screening assays against three subtypes of Ca(v)3 T-type channels using molecular and pharmacologic approaches. Assay and Drug Development Technologies 2007, 5(2), 191-203). The HEK293 cells recombinantly expressing Cav3.2 are maintained in DMEM growth medium (Life Technologies) supplemented with 10% Fetal Bovine Serum (FBS), 100 U/ml penicilin (Life Technologies), 100 μg/ml streptomycin (Life Technologies) and 1 mg/ml G418 (Life Technologies). HEK293 cells recombinantly expressing Cav1.2 are maintained in DMEM growth medium (Life technologies) supplemented with 10% FBS, 0.1 mg/ml G418 (Life Technologies), 0.1 mg/ml hygromycin (Life Technologies) and 40 ug/ml zeocin (Life Technologies).
Cells are washed once with PBS, then dissociated in 0.25% trypsin/EDTA (Life Technologies) and seeded into poly-D-lysine coated 384-well black, clear bottom plates (BD Biosciences) at a density of 30,000 cells/well. The seeded plates are incubated overnight at 37° C.
Immediately prior to performing the assay, medium is removed and cells are treated for 1 hour at 37° C. with loading buffer containing HBSS 1× (137 mM NaCl; 5.4 mM KCl; 0.25 mM Na2HPO4; 1.3 mM CaCl2; 0.4 mM MgSO04; 0.5 mM MgCl2; 0.4 mM KH2PO4, pH 7.4), 0.375 g/L NaHCO3, 20 mM Hepes, supplemented with 3 μM Fluo-4-AM and 0.15% Pluronic (Life Technologies). The cells are then washed three times with assay buffer (HBSS 1×; 0.375 g/L NaHCO3; 20 mM Hepes; 1% FBS; pH 7.4) and allowed to rest in 50 μl of wash buffer for 30 minutes.
Stock solutions of test compounds are prepared to a concentration of 10 mM in DMSO. For the Cav3.2 assay, serial dilutions of the compounds are prepared in TEAC buffer (100 mM tetraethylammonium chloride; 20 mM Hepes; 2.5 mM CaCl2; 5 mM KCl; 1 mM MgCl2; 1% FBS; pH 7.2), for the Cav1.2 assay serial dilutions are prepared in assay buffer. […] The compounds are incubated with the cells for 3 minutes and Ca2+ entry is stimulated by adding either CaCl2 to a final concentration of 10 mM (Cav3.2 assay) or by adding KCl to a final concentration of 20 mM (Cav1.2 assay). The kinetics of fluorescence increase are recorded for every well and the area under the fluorescence trace for every compound concentration is used to generate inhibition curves using non-linear regression sigmoidal concentration-response curve analysis with in-house software. IC50 values are calculated and represent the compound concentration required to inhibit 50% of the signal that is obtained in the presence of vehicle instead of test compound.
For orientation: A change in cytosolic calcium serves as a functional read-out for many receptors and channels.
The term IC50 denotes the concentration that gives 50% inhibition. In the case of `COc1ccc(Cn2ncc(NC(=O)Cc3ccc(OCC4(C)COC4)cc3)n2)cc1F` [Example 123, N-[2-(3-Fluoro-4-methoxy-benzyl)-2H-[1,2,3]triazol-4-yl]-2-[4-(3-methyl-oxetan-3-ylmethoxy)-phenyl]-acetamide], the IC50 was 870 nM.
As to `Cc1cc(Cn2ncc(NC(=O)Cc3ccc4c(cnn4C)c3)n2)ccc1C#N` [Example 164, N-[2-(4-Cyano-3-methyl-benzyl)-2H-[1,2,3]triazol-4-yl]-2-(1-methyl-1H-indazol-5-yl)-acetamide], the IC50 is 110 nM.
As to `N#Cc1ccc(Cn2ncc(NC(=O)Cc3cnc(N4CCCC4)c(F)c3)n2)nc1` [Example 247, N-[2-(5-Cyano-pyridin-2-ylmethyl)-2H-[1,2,3]triazol-4-yl]-2-(5-fluoro-6-pyrrolidin-1-yl-pyridin-3-yl)-acetamide], the IC50 was found to be 690 nM.
As for `O=C(Cc1ccc(N2CCC(F)(F)C2)nc1)Nc1cnn(Cc2ccc(OC(F)F)c(F)c2)n1` [Example 182, N-[2-(4-Difluoromethoxy-3-fluoro-benzyl)-2H-[1,2,3]triazol-4-yl]-2-[6-(3,3-difluoro-pyrrolidin-1-yl)-pyridin-3-yl]-acetamide], the IC50 was 13 nM.
Take `CC(C)(C)c1ccc(CC(=O)Nc2cnn(Cc3ccc(OC(F)F)c(F)c3)n2)cc1` [Example 178, 2-(4-tert-Butyl-phenyl)-N-[2-(4-difluoromethoxy-3-fluoro-benzyl)-2H-[1,2,3]triazol-4-yl]-acetamide]: the IC50 was found to be 49 nM.
The value for `CCOc1ccc(Cn2ncc(NC(=O)Cc3ccc4c(ccn4C)c3)n2)cc1` [Example 40, N-[2-(4-Ethoxy-benzyl)-2H-[1,2,3]triazol-4-yl]-2-(1-methyl-1H-indol-5-yl)-acetamide] was 35 nM; that for `CC(C)c1ccc(CC(=O)Nc2cnn(Cc3ccc(C#N)c(F)c3)n2)cc1` [Example 74, N-[2-(4-Cyano-3-fluoro-benzyl)-2H-[1,2,3]triazol-4-yl]-2-(4-isopropyl-phenyl)-acetamide] was 45 nM; that for `COc1ccc(Cn2ncc(NC(=O)Cc3ccc(C(C)C)cc3)n2)cc1C#N` [Example 205, N-[2-(3-Cyano-4-methoxy-benzyl)-2H-[1,2,3]triazol-4-yl]-2-(4-isopropyl-phenyl)-acetamide] was 160 nM.
The value for `COc1c(F)cc(Cn2ncc(NC(=O)Cc3ccc(OC4CC(F)(F)C4)cc3)n2)cc1F` [Example 146, 2-[4-(3,3-Difluoro-cyclobutoxy)-phenyl]-N-[2-(3,5-difluoro4-methoxy-benzyl)-2H-[1,2,3]triazol-4-yl]-acetamide] was 810 nM; that for `COc1c(F)cc(Cn2ncc(NC(=O)Cc3ccc(N4CCC(F)(F)C4)nc3)n2)cc1F` [Example 147, N-[2-(3,5-Difluoro-4-methoxy-benzyl)-2H-[1,2,3]triazol-4-yl]-2-[6-(3,3-difluoro-pyrrolidin-1-yl)-pyridin-3-yl]-acetamide] was 13 nM; that for `O=C(Cc1ccc(N2CCCC2)nc1)Nc1cnn(Cc2ccc(F)c(F)c2)n1` [Example 18, N-[2-(3,4-Difluoro-benzyl)-2H-[1,2,3]triazol-4-yl]-2-(6-pyrrolidin-1-yl-pyridin-3-yl)-acetamide] was 15 nM.
Consider `Cn1ncc2cc(CC(=O)Nc3cnn(Cc4ccc(F)cc4)n3)ccc21` [Example 56, N-[2-(4-Fluoro-benzyl)-2H-[1,2,3]triazol-4-yl]-2-(1-methyl-1H-indazol-5-yl)-acetamide], for which the IC50 is 38 nM.
For the compound `COc1c(F)cc(Cn2ncc(NC(=O)Cc3ccc(C4(OC)COC4)cc3)n2)cc1F` [Example 143, N-[2-(3,5-Difluoro-4-methoxy-benzyl)-2H-[1,2,3]triazol-4-yl]-2-[4-(3-methoxy-oxetan-3-yl)-phenyl]-acetamide], the IC50 is 76 nM.
The value for `CCn1ncc2cc(CC(=O)Nc3cnn(Cc4ccc(F)c(F)c4)n3)ccc21` [Example 27, N-[2-(3,4-Difluoro-benzyl)-2H-[1,2,3]triazol-4-yl]-2-(1-ethyl-1H-indazol-5-yl)-acetamide] was 9.8 nM; that for `COc1ccc(Cn2ncc(NC(=O)Cc3ccc4c(cnn4C)c3)n2)cc1C#N` [Example 208, N-[2-(3-Cyano-4-methoxy-benzyl)-2H-[1,2,3]triazol-4-yl]-2-(1-methyl-1H-indazol-5-yl)-acetamide] was 600 nM; that for `COc1ccc(Cn2ncc(NC(=O)Cc3ccc(N4CCCC4)nc3)n2)cc1OC` [Example 51, N-[2-(3,4-Dimethoxy-benzyl)-2H-[1,2,3]triazol-4-yl]-2-(6-pyrrolidin-1-yl-pyridin-3-yl)-acetamide] was 600 nM.
The value for `Cc1cc(CC(=O)Nc2cnn(Cc3ccc(C#N)cn3)n2)ccc1OCC(F)(F)F` [Example 242, N-[2-(5-Cyano-pyridin-2-ylmethyl)-2H-[1,2,3]triazol-4-yl]-2-[3-methyl-4-(2,2,2-trifluoro-ethoxy)-phenyl]-acetamide] was 54 nM; that for `CCn1ncc2cc(CC(=O)Nc3cnn(Cc4ccc(OC(F)(F)F)c(F)c4)n3)ccc21` [Example 190, 2-(1-Ethyl-1H-indazol-5-yl)-N-[2-(3-fluoro-4-trifluoromethoxy-benzyl)-2H-[1,2,3]triazol-4-yl]-acetamide] was 14 nM; that for `Cc1ccc(Cn2ncc(NC(=O)Cc3ccc(N4CCCC4)nc3)n2)cc1` [Example 68, N-[2-(4-Methyl-benzyl)-2H-[1,2,3]triazol-4-yl]-2-(6-pyrrolidin-1-yl-pyridin-3-yl)-acetamide] was 45 nM.
For `O=C(Cc1ccc2cc[nH]c2c1)Nc1cnn(Cc2ccc(F)c(F)c2)n1` [Example 8, N-[2-(3,4-Difluoro-benzyl)-2H-[1,2,3]triazol-4-yl]-2-(1H-indol-6-yl)-acetamide], the IC50 came to 37 nM.
The value for `COc1cc(Cn2ncc(NC(=O)Cc3ccc(C4(OC)COC4)cc3)n2)cc(F)c1F` [Example 228, N-[2-(3,4-Difluoro-5-methoxy-benzyl)-2H-[1,2,3]triazol-4-yl]-2-[4-(3-methoxy-oxetan-3-yl)-phenyl]-acetamide] was 300 nM.
In the case of `O=C(Cc1ccc(N2CCC(F)(F)C2)nc1)Nc1cnn(Cc2ccc(F)c(F)c2)n1` [Example 17, N-[2-(3,4-Difluoro-benzyl)-2H-[1,2,3]triazol-4-yl]-2-[6-(3,3-difluoro-pyrrolidin-1-yl)-pyridin-3-yl]-acetamide], the IC50 worked out at 7.3 nM.
For the compound `Cn1ncc2ccc(CC(=O)Nc3cnn(Cc4ccc(C#N)cc4)n3)cc21` [Example 101, N-[2-(4-Cyano-benzyl)-2H-[1,2,3]triazol-4-yl]-2-(1-methyl-1H-indazol-6-yl)-acetamide], the IC50 worked out at 480 nM.
The value for `Cn1ncc2cc(CC(=O)Nc3cnn(Cc4ccc(OC(F)F)c(F)c4)n3)ccc21` [Example 179, N-[2-(4-Difluoromethoxy-3-fluoro-benzyl)-2H-[1,2,3]triazol-4-yl]-2-(1-methyl-1H-indazol-5-yl)-acetamide] was 22 nM; that for `CCCn1ncc2cc(CC(=O)Nc3cnn(Cc4ccc(C#N)cc4)n3)ccc21` [Example 104, N-[2-(4-Cyano-benzyl)-2H-[1,2,3]triazol-4-yl]-2-(1-propyl-1H-indazol-5-yl)-acetamide] was 70 nM.
The value for `CCCCc1n[nH]c2ccc(CC(=O)Nc3cnn(Cc4ccc(F)c(F)c4)n3)cc12` [Example 32, 2-(3-Butyl-1H-indazol-5-yl)-N-[2-(3,4-difluoro-benzyl)-2H-[1,2,3]triazol-4-yl]-acetamide] was 74 nM.
